One data set deals with replicon cells (1b-Con1). Description: Replicon activity assay (1b-Con1 replicon cells, real-time RT-PCR). Type of data set: cell-based, HCV. To be noted: Hepatitis C virus, 72 h, read-out: Replicon (1b) EC50. On the technique in general: A replicon is a self-replicating genome or part of one, used to study replication in cells.
For data set [1], the system named is replicon cells. Nature of the data set: Cytotoxicity in replicon cells (MTS assay, CellTiter 96). As to conditions: CC50, MTS assay, three days post dosing.
Data set [2] concerns replicon cells.
Data set [3] deals with HCV NS5B RNA-dependent RNA polymerase (1b-BKΔ55) (Hepatitis C virus genotype 1b, UniProt P26663). Description: biochemical.
Chain of HCV NS5B RNA-dependent RNA polymerase (1b-BKΔ55) (P26663 2420-2955 limits assumed, stated change not applied): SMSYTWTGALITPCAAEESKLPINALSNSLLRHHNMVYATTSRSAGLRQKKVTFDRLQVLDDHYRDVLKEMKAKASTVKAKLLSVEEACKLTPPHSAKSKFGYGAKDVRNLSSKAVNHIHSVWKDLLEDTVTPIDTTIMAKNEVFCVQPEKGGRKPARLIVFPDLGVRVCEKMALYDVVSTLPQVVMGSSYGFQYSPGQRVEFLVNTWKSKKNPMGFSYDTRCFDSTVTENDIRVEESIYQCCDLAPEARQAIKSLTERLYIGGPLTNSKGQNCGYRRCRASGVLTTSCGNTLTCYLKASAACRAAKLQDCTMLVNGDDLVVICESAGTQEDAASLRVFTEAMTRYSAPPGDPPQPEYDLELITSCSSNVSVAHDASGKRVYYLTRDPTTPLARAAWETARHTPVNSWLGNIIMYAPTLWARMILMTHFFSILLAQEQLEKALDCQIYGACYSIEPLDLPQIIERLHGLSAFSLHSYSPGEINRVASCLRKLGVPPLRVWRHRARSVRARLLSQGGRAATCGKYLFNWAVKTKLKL
The test system of another data set is HCV replicon cells. Description: Cell-based HCV replicon assay (replicon RNA by Taqman real time PCR). To be noted: read-out: 1b EC50.

EC50, Cytotoxicity and IC50 data for 29 compounds are collected here from patent US9156872B2, “2′-azido substituted nucleoside derivatives and methods of use thereof for the treatment of viral diseases” (priority 2011, dated 2015).

Like-named read-outs stand apart in the source and are kept apart here.

One may read the EC50 as the concentration needed to bring the measured effect to its halfway point. What is called IC50 is the concentration needed to halve the response being measured. Read a low IC50 as higher potency.

Consider `COc1nc(N)nc2c1ncn2C1O[C@@H]2COP(=O)(OC(C)C)O[C@H]2[C@@]1(C)N=[N+]=[N-]` (stereo partly shown), for which the 50% effective concentration (EC50) in the data set on replicon cells (1b-Con1) (1b-Con1 replicon cells, three days post-dosing) was 8300 nM. Further, the Cytotoxicity in the data set with replicon cells [1] was above 100 µM. As for `CC(C)OC(=O)[C@H](C)NP(=O)(OC[C@H]1O[C@@H](n2ccc(=O)[nH]c2=O)[C@](C)(N=[N+]=[N-])[C@@H]1O)Oc1ccccc1` (stereo partly shown), the EC50 in the data set on replicon cells (1b-Con1) worked out at 3100 nM. Also, the Cytotoxicity in the data set with replicon cells [2] was above 100 µM. `COC(=O)[C@H](C)NP(=O)(OC[C@H]1O[C@@H](n2ccc(N)nc2=O)[C@](C)(N=[N+]=[N-])[C@@H]1O)Oc1ccc(Cl)c(Cl)c1` (stereo partly shown): the EC50 with replicon cells (1b-Con1) is 35000 nM. For the same compound, the Cytotoxicity with replicon cells [2] is above 100 µM. In the case of `CCOC(=O)[C@H](C)NP(=O)(OC[C@H]1O[C@@H](n2cnc3c(OC)nc(N)nc32)[C@](C)(N=[N+]=[N-])C1O)Oc1ccc(Cl)cc1` (stereo partly shown), the EC50 in the data set with replicon cells (1b-Con1) turned out to be 1200 nM. This compound displayed a Cytotoxicity in the data set on replicon cells [2] above 100 µM. Taken in the same sequence, the figures for `CCOC(=O)c1ccccc1OP(=O)(N[C@@H](C)C(=O)OC)OC[C@H]1O[C@@H](n2ccc(=O)[nH]c2=O)[C@](C)(N=[N+]=[N-])[C@@H]1O` (stereo partly shown) were 2800 nM and above 100 µM.

`C[C@@]1(N=[N+]=[N-])[C@H](O)[C@@H](COP(=O)(O)OP(=O)(O)OP(=O)(O)O)O[C@H]1n1ccc(=O)[nH]c1=O` [Compound 74] yielded a concentration for half-maximal inhibition (IC50) in data set [3] of 55000 nM. Same read-out and setting: under `C[C@@]1(N=[N+]=[N-])[C@H](O)C(COP(=O)(O)OP(=O)(O)OP(=O)(O)O)O[C@H]1n1ccc(N)nc1=O` (stereo partly shown) [Compound 75] stands 10000 nM; under `C[C@@]1(N=[N+]=[N-])[C@H](O)C(COP(=O)(O)OP(=O)(O)OP(=O)(O)O)O[C@H]1n1cnc2c(=O)[nH]c(N)nc21` (stereo partly shown) [Compound 76], 1700 nM. Regarding `COC(=O)[C@H](C)NP(=O)(OC[C@H]1O[C@@H](n2cnc3c(NC4CC4)nc(N)nc32)[C@](C)(N=[N+]=[N-])[C@@H]1O)Oc1ccccc1` (stereo partly shown) [Compound 386], the EC50 with HCV replicon cells (Hepatitis C virus, 72 h) was 5300 nM. As for `CCOC(=O)[C@H](C)NP(=O)(OC[C@H]1O[C@@H](n2cnc3c(NC4CC4)nc(N)nc32)[C@](C)(N=[N+]=[N-])[C@@H]1O)Oc1ccccc1` (stereo partly shown) [Compound 387], the EC50 in the data set on HCV replicon cells (Hepatitis C virus, 72 h) is 1900 nM.

For `COC(=O)[C@H](C)NP(=O)(OC[C@H]1O[C@@H](n2cnc3c(N4CCC4)nc(N)nc32)[C@](C)(N=[N+]=[N-])[C@@H]1O)Oc1ccccc1Cl` (stereo partly shown) [Compound 388], in the data set with HCV replicon cells (Hepatitis C virus, 72 h), the EC50 is 1600 nM. As for `COC(=O)[C@H](C)NP(=O)(OC[C@H]1O[C@@H](n2cnc3c(N4CCC4)nc(N)nc32)[C@](C)(N=[N+]=[N-])[C@@H]1O)Oc1ccccc1Cl` (stereo partly shown) [Compound 389], the EC50 with HCV replicon cells was found to be 2300 nM. Turning to `COC(=O)[C@H](C)NP(=O)(OC[C@H]1O[C@@H](n2cnc3c(N4CCC4)nc(N)nc32)[C@](C)(N=[N+]=[N-])[C@@H]1O)Oc1ccccc1` (stereo partly shown) [Compound 390], the EC50 in the data set on HCV replicon cells (Hepatitis C virus, 72 h) worked out at 3400 nM.

For `CCOC(=O)[C@H](C)NP(=O)(OC[C@H]1O[C@@H](n2cnc3c(N4CCC4)nc(N)nc32)[C@](C)(N=[N+]=[N-])[C@@H]1O)Oc1ccccc1` (stereo partly shown) [Compound 391], the 50% effective concentration (EC50) in the data set on HCV replicon cells (Hepatitis C virus, 72 h) came to 1500 nM. Still for that read-out and setting: under `CC(C)OC(=O)[C@H](C)NP(=O)(OC[C@H]1O[C@@H](n2cnc3c(N4CCC4)nc(N)nc32)[C@](C)(N=[N+]=[N-])[C@@H]1O)Oc1ccccc1` (stereo partly shown) [Compound 392] stands 5600 nM. `CCOC(=O)[C@H](C)NP(=O)(OC[C@H]1O[C@@H](n2cnc3c(OCC)nc(N)nc32)[C@](C)(N=[N+]=[N-])[C@@H]1O)Oc1ccccc1` (stereo partly shown) [Compound 558]: in the data set with HCV replicon cells, the concentration giving a half-maximal response (EC50) is 1000 nM. Regarding `CCOP1(=O)OC[C@H]2O[C@@H](n3ccc(=O)[nH]c3=O)[C@](C)(N=[N+]=[N-])[C@@H]2O1` (stereo partly shown) [Compound 567], the concentration for a half-maximal effect (EC50) in the data set on HCV replicon cells (Hepatitis C virus, 72 h) was above 100000 nM.

Regarding `CCOP1(=O)OC[C@H]2O[C@@H](n3ccc(=O)[nH]c3=O)[C@](C)(N=[N+]=[N-])[C@@H]2O1` (stereo partly shown) [Compound 568], the EC50 in the data set with HCV replicon cells was above 100000 nM. As to `CCOc1nc(N)nc2c1ncn2[C@@H]1O[C@@H]2COP(=O)(NC3CCCCC3)O[C@H]2[C@@]1(C)N=[N+]=[N-]` (stereo partly shown) [Compound 572], in the data set with HCV replicon cells (Hepatitis C virus, 72 h, HCV replicon 1b, cells harvested on day 3), the half-maximal effective concentration (EC50) was 100000 nM. `CCOC(=O)[C@H](C)NP(=O)(OC[C@H]1O[C@@H](n2cnc3c(OC)nc(N)nc32)[C@](C)(N=[N+]=[N-])[C@@H]1O)Oc1ccccc1` (stereo partly shown) [drawing 880]: in the data set on replicon cells (1b-Con1), the EC50 came out at 400 nM. Further, in the data set on replicon cells [2], the Cytotoxicity was above 100 µM. For `CCOC(=O)[C@H](C)NP(=O)(OC[C@H]1O[C@@H](n2cnc3c(OCC)nc(N)nc32)[C@](C)(N=[N+]=[N-])[C@@H]1O)Oc1ccccc1` (stereo partly shown) [drawing 881] the same measures were 1000 nM and above 100 µM.

Turning to `CCOC(=O)[C@H](C)NP(=O)(OC[C@H]1O[C@@H](n2cnc3c(N4CCC4)nc(N)nc32)[C@](C)(N=[N+]=[N-])[C@@H]1O)Oc1ccccc1` (stereo partly shown) [drawing 882], the EC50 with replicon cells (1b-Con1) was 1500 nM. Moreover, in the data set with replicon cells [2], the Cytotoxicity was above 100 µM. For `COC(=O)[C@H](C)NP(=O)(OC[C@H]1O[C@@H](n2cnc3c(NC4CC4)nc(N)nc32)[C@](C)(N=[N+]=[N-])[C@@H]1O)Oc1ccccc1Cl` (stereo partly shown) [drawing 883] the same measures were 1400 nM and above 100 µM. As to `CC(C)OC(=O)[C@H](C)NP(=O)(OC[C@H]1O[C@@H](n2ccc(N)nc2=O)[C@](C)(N=[N+]=[N-])[C@@H]1O)Oc1ccccc1Cl` (stereo partly shown) [drawing 885], the EC50 in the data set on replicon cells (1b-Con1) was found to be 1300 nM. In addition, the Cytotoxicity in the data set on replicon cells [2] was above 100 µM. In the case of `CCCC(CCC)COC(=O)[C@H](C)NP(=O)(OC[C@H]1O[C@@H](n2ccc(=O)[nH]c2=O)[C@](C)(N=[N+]=[N-])[C@@H]1O)Oc1ccccc1` (stereo partly shown) [drawing 886], the EC50 in the data set on replicon cells (1b-Con1) came to 2100 nM. Further, the Cytotoxicity in the data set with replicon cells [2] is 83 µM. For `CCOc1nc(N)nc2c1ncn2[C@@H]1O[C@H](COP(=O)(N[C@@H](C)C(=O)OC)Oc2ccc(Cl)cc2)[C@@H](O)[C@@]1(C)N=[N+]=[N-]` (stereo partly shown) [drawing 887] the same measures were 900 nM and 25 µM.

In the case of `C[C@H](NP(=O)(OC[C@H]1O[C@@H](n2ccc(=O)[nH]c2=O)[C@](C)(N=[N+]=[N-])[C@@H]1O)Oc1ccc2c(c1)OCO2)C(=O)OCc1ccccc1` (stereo partly shown) [drawing 888], the EC50 in the data set with replicon cells (1b-Con1) was found to be 1200 nM. `CC(C)OC(=O)[C@H](C)NP(=O)(OC[C@H]1O[C@@H](n2ccc(=O)[nH]c2=O)[C@](C)(N=[N+]=[N-])[C@@H]1O)Oc1ccc(Cl)c(Cl)c1` (stereo partly shown) [drawing 890]: the EC50 in the data set on replicon cells (1b-Con1) turned out to be 7600 nM. In the data set on replicon cells [2], this compound yielded a Cytotoxicity of 42 µM. Taken in the same sequence, the figures for `CC(C)COC(=O)[C@H](C)NP(=O)(OC[C@H]1O[C@@H](n2ccc(=O)[nH]c2=O)[C@](C)(N=[N+]=[N-])[C@@H]1O)Oc1ccccc1` (stereo partly shown) [drawing 892] were 800 nM and 55 µM.
